What was measured:
[1] = target: T1, Nuclear receptor subfamily 1 group I member 3 (Homo sapiens, UniProt Q14994); assay: Inhibition of GST-tagged human CAR LBD incubated for 90 mins by TR-FRET assay
T1 sequence (Q14994 whole entry): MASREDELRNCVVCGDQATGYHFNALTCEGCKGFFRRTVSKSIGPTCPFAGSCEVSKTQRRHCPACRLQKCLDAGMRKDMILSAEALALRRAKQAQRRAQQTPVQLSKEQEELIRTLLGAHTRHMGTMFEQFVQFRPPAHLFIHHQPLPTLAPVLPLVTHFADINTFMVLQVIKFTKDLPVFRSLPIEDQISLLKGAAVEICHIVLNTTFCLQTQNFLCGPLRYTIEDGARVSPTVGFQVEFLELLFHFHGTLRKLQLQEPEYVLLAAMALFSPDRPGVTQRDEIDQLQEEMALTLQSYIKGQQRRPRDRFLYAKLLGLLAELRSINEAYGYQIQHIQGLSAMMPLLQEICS

[2] = target: T1, Nuclear receptor subfamily 1 group I member 3; assay: Inhibition of GST-tagged human CAR LBD at 100 uM incubated for 90 mins by TR-FRET assay relative to control; conditions: 1.5 h, read-out: Imax
[3] = target: T1, Nuclear receptor subfamily 1 group I member 3; assay: Inhibition of GST-tagged human CAR LBD at 90 uM incubated for 90 mins in presence of Cy5-PGC1-alpha by HTRF co-activator assay relative to control; conditions: 1.5 h, read-out: Imax
[4] = target: CDK9/cyclin T1 (Homo sapiens, UniProt P50750); assay: Inhibition of His-tagged human CDK9/CycT1 incubated for 90 mins by TR-FRET assay; assay type: protein-complex assay
Sequence of CDK9/cyclin T1 (O60563 whole entry): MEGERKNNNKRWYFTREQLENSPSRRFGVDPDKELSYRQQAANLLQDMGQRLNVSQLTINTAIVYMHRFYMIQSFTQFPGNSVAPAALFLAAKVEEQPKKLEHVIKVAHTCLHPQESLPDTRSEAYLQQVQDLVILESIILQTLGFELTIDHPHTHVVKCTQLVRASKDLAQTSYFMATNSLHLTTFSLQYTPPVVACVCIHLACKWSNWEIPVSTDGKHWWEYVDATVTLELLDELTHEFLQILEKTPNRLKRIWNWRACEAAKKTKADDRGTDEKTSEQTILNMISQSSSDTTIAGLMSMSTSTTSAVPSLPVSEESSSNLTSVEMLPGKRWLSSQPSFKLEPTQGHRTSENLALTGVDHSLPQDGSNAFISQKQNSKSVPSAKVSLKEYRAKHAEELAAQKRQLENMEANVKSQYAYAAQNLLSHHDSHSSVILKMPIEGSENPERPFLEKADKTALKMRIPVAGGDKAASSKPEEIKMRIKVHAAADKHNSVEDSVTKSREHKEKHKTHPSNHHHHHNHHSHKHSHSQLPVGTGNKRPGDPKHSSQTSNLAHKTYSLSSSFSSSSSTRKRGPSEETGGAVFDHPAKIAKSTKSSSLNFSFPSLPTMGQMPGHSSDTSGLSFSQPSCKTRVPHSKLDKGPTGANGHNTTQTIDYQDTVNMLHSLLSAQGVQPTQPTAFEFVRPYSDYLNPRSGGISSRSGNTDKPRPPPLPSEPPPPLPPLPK
Sequence of CDK9/cyclin T1 (P50750 whole entry): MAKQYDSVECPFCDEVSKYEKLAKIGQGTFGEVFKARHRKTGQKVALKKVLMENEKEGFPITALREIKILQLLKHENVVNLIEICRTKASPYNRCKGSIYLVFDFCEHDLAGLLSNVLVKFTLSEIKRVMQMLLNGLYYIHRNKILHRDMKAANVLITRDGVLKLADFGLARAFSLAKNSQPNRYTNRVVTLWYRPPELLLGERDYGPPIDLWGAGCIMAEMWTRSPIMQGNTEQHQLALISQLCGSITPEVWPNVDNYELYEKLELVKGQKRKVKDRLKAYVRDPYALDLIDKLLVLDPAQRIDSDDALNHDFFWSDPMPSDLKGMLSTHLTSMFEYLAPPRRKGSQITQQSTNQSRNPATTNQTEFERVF

[5] = target: Glycogen synthase kinase-3 alpha (Homo sapiens, UniProt P49840); assay: Inhibition of GST-tagged human GSK3A incubated for 90 mins by TR-FRET assay
Sequence of Glycogen synthase kinase-3 alpha (P49840 whole entry): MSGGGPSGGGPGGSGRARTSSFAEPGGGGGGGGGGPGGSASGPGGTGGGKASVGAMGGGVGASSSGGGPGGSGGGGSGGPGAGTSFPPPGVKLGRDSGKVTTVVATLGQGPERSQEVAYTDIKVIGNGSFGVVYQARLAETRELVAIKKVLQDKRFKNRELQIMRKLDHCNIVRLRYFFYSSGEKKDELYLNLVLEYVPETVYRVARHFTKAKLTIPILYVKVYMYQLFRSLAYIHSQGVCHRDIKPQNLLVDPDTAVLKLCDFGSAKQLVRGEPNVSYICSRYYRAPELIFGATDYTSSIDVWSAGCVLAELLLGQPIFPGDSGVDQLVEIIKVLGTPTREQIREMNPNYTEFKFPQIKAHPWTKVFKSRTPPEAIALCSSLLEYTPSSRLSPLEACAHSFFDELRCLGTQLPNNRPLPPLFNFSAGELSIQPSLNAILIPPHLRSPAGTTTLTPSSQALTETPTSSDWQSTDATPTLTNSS

[6] = target: T2, Mitogen-activated protein kinase 15 (Homo sapiens, UniProt Q8TD08); assay: Inhibition of Flag/His-tagged human MAPK15 incubated for 90 mins by TR-FRET assay
T2 sequence (Q8TD08 whole entry): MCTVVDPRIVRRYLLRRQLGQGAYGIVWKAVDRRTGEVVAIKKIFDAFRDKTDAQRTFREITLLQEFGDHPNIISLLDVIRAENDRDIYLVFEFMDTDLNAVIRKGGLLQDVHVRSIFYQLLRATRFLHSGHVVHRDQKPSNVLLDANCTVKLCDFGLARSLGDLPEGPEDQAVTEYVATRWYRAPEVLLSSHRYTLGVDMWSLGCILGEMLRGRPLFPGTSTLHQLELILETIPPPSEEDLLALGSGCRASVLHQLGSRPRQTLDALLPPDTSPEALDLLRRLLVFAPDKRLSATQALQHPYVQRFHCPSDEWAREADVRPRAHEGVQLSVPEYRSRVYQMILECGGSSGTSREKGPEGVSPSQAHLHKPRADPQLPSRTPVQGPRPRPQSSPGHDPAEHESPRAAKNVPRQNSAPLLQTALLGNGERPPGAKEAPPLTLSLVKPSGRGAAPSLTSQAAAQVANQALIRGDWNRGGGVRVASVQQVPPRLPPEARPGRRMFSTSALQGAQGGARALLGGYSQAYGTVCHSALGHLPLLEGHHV

[7] = target: T1, Nuclear receptor subfamily 1 group I member 3; assay: Inhibition of GST-tagged human CAR LBD incubated for 90 mins in presence of Cy5-PGC1-alpha by HTRF co-activator assay
[8] = target: Calcium/calmodulin-dependent protein kinase kinase 2 (Homo sapiens, UniProt Q96RR4); assay: Inhibition of GST-tagged human CAMKK2 incubated for 90 mins by TR-FRET assay
Sequence of Calcium/calmodulin-dependent protein kinase kinase 2 (Q96RR4 whole entry, the tested form may be a part): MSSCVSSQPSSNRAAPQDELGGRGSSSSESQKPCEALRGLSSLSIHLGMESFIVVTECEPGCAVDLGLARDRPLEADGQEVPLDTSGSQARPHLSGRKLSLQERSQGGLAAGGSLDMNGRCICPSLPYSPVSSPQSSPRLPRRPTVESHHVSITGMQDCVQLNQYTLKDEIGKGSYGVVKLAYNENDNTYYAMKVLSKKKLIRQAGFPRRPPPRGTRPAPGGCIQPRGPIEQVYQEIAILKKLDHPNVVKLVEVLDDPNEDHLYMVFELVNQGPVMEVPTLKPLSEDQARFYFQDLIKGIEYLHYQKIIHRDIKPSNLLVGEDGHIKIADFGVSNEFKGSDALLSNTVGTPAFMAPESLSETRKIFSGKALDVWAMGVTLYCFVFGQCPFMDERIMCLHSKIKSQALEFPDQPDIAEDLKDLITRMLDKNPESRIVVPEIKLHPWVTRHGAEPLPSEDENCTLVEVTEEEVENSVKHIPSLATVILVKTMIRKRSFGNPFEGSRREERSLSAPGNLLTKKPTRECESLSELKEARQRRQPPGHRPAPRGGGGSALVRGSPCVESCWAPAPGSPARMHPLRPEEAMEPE

[9] = target: T1, Nuclear receptor subfamily 1 group I member 3; assay: Inhibition of GST-tagged human CAR LBD at 100 uM incubated for 90 mins in presence of Cy5-PGC1-alpha by HTRF co-activator assay relative to control; conditions: 1.5 h, read-out: Imax
[10] = target: T1, Nuclear receptor subfamily 1 group I member 3; assay: Inhibition of GST-tagged human CAR LBD at 30 uM incubated for 90 mins in presence of Cy5-PGC1-alpha by HTRF co-activator assay relative to control; conditions: 1.5 h, read-out: Imax

IC50 [5] [nM] | IC50 [7] [nM] | IC50 [8] [nM] | IC50 [1] [nM] | SMILES | IC50 [6] [nM] | further results
– | – | – | – | CC(C)(C)c1cnc(CSc2cnc(NC(=O)C3CCNCC3)s2)o1 [BMS-387032] | – | EC50 [1]: 51100 nM; inhibition at 100 µM [2]: 50.8%; inhibition at 90 µM [3]: 26.4%
8.2 | 6600 | 2700 | – | CC(C)(C)c1cnc(CSc2cnc(NC(=O)C3CCN(CC(=O)NCCOCCOCCOCCNc4cccc5c4C(=O)N(C4CCC(=O)NC4=O)C5=O)CC3)s2)o1 (centres undefined) | 79.1 | IC50 [4]: 5.6 nM; EC50 [1]: 3100 nM; inhibition at 100 µM [2]: 43.4%; inhibition at 90 µM [3]: 75.4%
0.7 | – | 161 | – | Cn1cc(C2=C(c3cn(CCCSC(=N)N)c4ccccc34)C(=O)NC2=O)c2ccccc21 [BISINDOLYLMALEIMIDE IX] | 0.9 | –
– | 258 | – | 162 | CCOC(=O)Nc1ccc2c(c1)N(C(=O)CN(CC)CC)c1ccccc1CC2 | – | inhibition at 30 µM [10]: 100%
– | – | – | 260 | Cc1oc2ccccc2c1CNC(=O)NCc1cccs1 | – | –

SMILES | IC50 [5] [nM] | IC50 [7] [nM] | IC50 [8] [nM] | IC50 [1] [nM] | IC50 [6] [nM] | further results
C[C@]12CC[C@@H](O)C[C@@H]1CC[C@@H]1[C@@H]2CC[C@]2(C)C=CC[C@@H]12 [ANDROSTENOL] | – | 250 | – | 339 | – | inhibition at 100 µM [9]: 84.7%
CC[C@H](Nc1nc(NCc2cnc(C)cc2C)c2ncn(C(C)C)c2n1)[C@@H](C)O [CYC-065] | 11100 | – | 13200 | – | 386 | –

Source: ChEMBL document CHEMBL6071206, “Development of BODIPY FL SNS 032 as a Versatile Probe for Constitutive Androstane Receptor and Multiple Kinases” (ACS Med Chem Lett, 2024)
